Laboratory results from US20100004277A1, “COMPOUNDS AND METHODS FOR MODULATING PROTEIN TRAFFICKING” (FoldRx Pharmaceuticals, Inc., priority 2006, published 2010).

Key:
[1] = system: sec23-2^ts mutant yeast strain; test: sec23^ts mutant growth rescue assay (OD600); format: cell-based; conditions: 30° C., 24 hours, 0.05 to 50 μM
Experimental: The sec23-2^ts mutant yeast strain carries a temperature sensitive mutant allele of the SEC23 gene, which permits the strain to grow normally at 25° C., but undergo growth arrest at 30° C. or higher. Inactivation of the Sec23 temperature-sensitive mutant protein at the restrictive temperature prevents the formation of transport vesicles at the ER resulting in a block in ER to golgi trafficking (see, e.g., Hicke et al. (1989) EMBO J. 8(6):1677-1684 and Castillo-Flores et al. (2005) J. Biol. Chem. 280(40):34033-34041).
To identify compounds that rescue the sec23^ts mutant phenotype, the mutant strain was first grown at 25° C. in rich media overnight. The strain was then diluted to an OD600 of 0.004 in SC media with 2% glucose, and mixed with various dilutions of test compounds compounds compounds (0.05 to 50 μM) in SC media with 2% glucose. The cells were then incubated at 25° C. or 30° C. for 24 hours. Rescue of the sec23^ts mutant phenotype was scored as an increase in the OD600 of cells cultured in the presence of the a compound as compared to cells cultured in the absence of the test compound.

alpha-synuclein toxicity = test: alpha-synuclein screen (rescue of cells from alpha-synuclein toxicity); format: cell-based
ypt1^ts cells = test: ypt1^ts mutant growth rescue assay (OD600); format: cell-based, yeast
Description: The yeast mutant cell line ypt1^ts suppresses, in a temperature dependent fashion, the dominant-lethal phenotype of a mutant YPT1 allele (Schmitt et al. (1988) Cell 53:635-47). The yeast mutant cell line ypt1^ts contains an allele of YPT1 that has two point mutations: one that changes an asparagine at position 121 to a isoleucine (N121I) and another that changes an alanine at position 161 to a valine (A161V). The N121I mutation causes dominant lethality by itself, but lethality is suppressed by the second mutation, resulting in a recessive loss of function phenotype at the restrictive temperatures. ypt1^ts cells grow normally at temperatures up to 25° C., but are growth arrested at 37° C. (Id.).
Compounds that rescue cells from alpha-synuclein toxicity were screened to assess their ability to restore growth of ypt1^ts cells. The effect of the compounds was measured on ypt1^ts cells cultured at room temperature (permissive temperature), 37° C. (non-permissive temperature), and 35° C. (semi-permissive temperature).
To determine if the test compounds could rescue the ypt1^ts mutant phenotype, ypt1^ts cells were grown overnight in synthetic complete (SC) media supplementd with 2% glucose at room temperature. Log phase cells were diluted into SC 2% glucose media to an OD600 of 0.003. 100 μL of this culture was then aliquoted into each well of 96-well flat bottom microtiter plates. 1 μL of the test compounds dissolved in DMSO (at a concentration range from 5 mM-0.005 mM) or of DMSO alone was added to each well (50 uM-0.05 uM final concentration in 1% DMSO). Plates were mixed by vortexing and incubated at 35° C. and 37° C. Compound rescue of the ypt1^ts temperature sensitive defect was assessed by measuring the OD600 (optical density at 600 nm; cell growth) of the cultures. Plates incubated at 35° C. were measured at 24 and 40 hours incubation time while plates grown at 37° C. were measured after 40 hours of incubation.
Assays monitoring the rescue of ypt1^ts mutants were performed using a vehicle, a positive control (calcium), active compounds obtained from the alpha-synuclein screen (Cpd. I.1 and Cpd. II.1), alpha-synuclein-active analogs of Cpd. […] I.1 (Cpd. I.4 and Cpd. I.5).

[2] = system: sar1^ts mutant yeast strain; test: sar1^ts mutant growth rescue assay (OD600); format: cell-based; conditions: 35° C., 72 hours, 0.05 to 50 μM
Experimental: The sar1st mutant yeast strain (ATCC, Manassas, Va.) carries a temperature sensitive mutant allele of the SAR1 gene, which permits the strain to grow at 25° C., but undergo growth arrest at 35° C. or higher. Inactivation of the mutant Sar1^ts protein at 35° C. prevents the formation of transport vesicles at the ER, causing a block in ER to golgi trafficking (Saito et al. (1998) J. Biochem. (Tokyo) 124(4):816-823).
To identify compounds that rescue the sar1^ts mutant phenotype, the mutant strain was first grown at 25° C. in rich media overnight. The strain was then diluted to an OD600 of 0.004 in SC media with 2% glucose, and mixed with various dilutions of test compounds (0.05 to 50 μM) in SC media with 2% glucose. The cells were then incubated at 25° C. or 35° C. for 72 hours. Rescue of the sar1^ts mutant phenotype was scored as an increase in the OD600 (concentration of the yeast cells) cultured in the presence of a test compound as compared to cells cultured cultured in the absence of the test compound.

ΔF508 CFTR = ΔF508 CFTR stabilization in CFBE cells, western blot; format: cell-based; conditions: 16 hours, 37° C.
Experimental: Selected compounds identified in the ypt1^ts screen were further tested for their ability to stabilize ΔF508 CTFR. CFBE cells, a cell line generated by transformation of cystic fibrosis tracheo-bronchial cells (ΔF508 CTFR homozygous) with SV40 (Bruscia et al. (2002) Gene Ther. 9(11):683-685), were cultured with 10 μM Cpd. I.3, 10 μM Cpd. II.2, or 10 μM VRT-325 for 16 hours at 37° C. (VRT-325 is described in, e.g., Van Goor et al. (2006) Am. J. Physiol. Lung Cell Mol. Physiol. 290:L1117-L1130). A population of cells was also cultured with the dimethyl sulfoxide (DMSO) solvent as a control.
Following incubation, cells were lysed, solubilized in Laemmli buffer, and subjected to SDS-PAGE. CFTR protein was visualized by western blotting using an antibody specific for CFTR. Culturing CFBE cells with Cpd. I.3 or Cpd. II.2 increased the amount of cellular ΔF508 CFTR protein (see band “B,” FIG. 3A). Cpd. I.3 and Cpd. […] The effects of Cpd. I.3 or Cpd.
Next, to test the effect of different concentrations of Cpd. I.3 and Cpd. II.2 on ΔF508 CFTR, a dose response experiment was performed. CFBE cells were grown at 37° C. for 16 hours in the presence of 1, 2.5, 5, or 10 μM Cpd. I.3 or Cpd. II.2. Following incubation, lysates were prepared from the various treated cell populations, the lysates solubilized in Laemmli buffer, and subjected to SDS-PAGE. The relative amounts of glysosylated (band “C”) and unglycosylated (band “B”) ΔF508 CFTR protein were visualized by western blotting as above (FIGS. 4A and 4C). The band intensities were quantitated by scanning and densitometry. […] I.3 (FIG. 4B) and Cpd. II.2 (FIG. 4D), respectively.

ΔF508 CFTR mutant = conditions: cell-based studies, cited from earlier work

N/C(=N\C(=O)C1CC1)Nc1nc2ccccc2s1 [Cpd. I.3]
rescue of the sec23^ts mutant phenotype [1]: rescue | activity in the alpha-synuclein screen (alpha-synuclein toxicity): active | rescue of the ypt1^ts mutant phenotype (ypt1^ts cells; 2.0 μM, 37° C., 40 hours): rescued | rescue of ypt1^ts loss of function / restoring growth of ypt1^ts (ypt1^ts cells; 35° C. and 37° C.): rescued | rescue of the sar1^ts mutant phenotype [2]: rescue | effects on stabilizing ΔF508 CFTR compared with VRT-325 (ΔF508 CFTR; 10 μM): comparable or better | amount of cellular ΔF508 CFTR protein (band B) (ΔF508 CFTR; 10 μM, vs DMSO): increased | amount of the glycosylated form of ΔF508 CFTR (band C) (ΔF508 CFTR; 10 μM, vs DMSO): increased | concentration at which efficacy reached a maximum (dose response curves from western blot) (ΔF508 CFTR): 1 to 2.5 µM | amount of glycosylated and unglycosylated ΔF508 CFTR proteins compared to absence of compound (ΔF508 CFTR; all concentrations tested (1-10 μM)): increase

CC(C)C[C@H](NC(=O)[C@H](Cc1ccccc1)NC(=O)c1cnccn1)B(O)O [bortezomib]
cellular chloride efflux (ΔF508 CFTR mutant; ΔF508 CFTR mutant): restoring | stabilization of the ΔF508 CFTR mutant, preventing premature degradation (ΔF508 CFTR mutant): stabilize
